From US20240365783A1, “HERBICIDAL MALONAMIDES” (BASF SE, priority 2021, published 2024)

Experiments:
Format in all cases: in vivo
[1] = tested on: Abutilon theophrasti (ABUTH); assay: greenhouse pre-emergence herbicidal test, ABUTH; details: pre-emergence method, scale from 0 to 100
From the text: (§1) The culture containers used were plastic flowerpots containing loamy sand with approximately 3.0% of humus as the substrate. The seeds of the test plants were sown separately for each species.
(§2) For the pre-emergence treatment, the active ingredients, which had been suspended or emulsified in water, were applied directly after sowing by means of finely distributing nozzles. The containers were irrigated gently to promote germination and growth and subsequently covered with transparent plastic hoods until the test plants had rooted. This cover caused uniform germination of the test plants, unless this had been impaired by the active ingredients.
(§3) Depending on the species, the test plants were kept at 10-25° C. or 20-35° C., respectively.
(§4) The test period extended over 2 to 4 weeks. During this time, the test plants were tended, and their response to the individual treatments was evaluated.
(§5) Evaluation was carried out using a scale from 0 to 100. 100 means no emergence of the test plants, or complete destruction of at least the aerial moieties, and 0 means no damage, or normal course of growth. A good herbicidal activity is given at values of 70 to <90 and a very good herbicidal activity is given at values of 90 to 100.
(§6) The test plants used in the greenhouse experiments were of the following species: […]

[2] = tested on: Apera spica-venti (APESV); assay: greenhouse pre-emergence herbicidal test, APESV; details: pre-emergence method, application rate 0.500 kg/ha, scale from 0 to 100
From the text: as §1, §2, §3, §4, §5, §6

Setaria viridis (SETVI) = assay: greenhouse post-emergence herbicidal test, SETVI; details: post-emergence method, application rate 0.500 kg/ha, scale from 0 to 100
From the text: as §1
(§7) For the post-emergence treatment, the test plants were first grown to a height of 3 to 15 cm, depending on the plant habit, and only then treated with the active ingredients which had been suspended or emulsified in water. For this purpose, the test plants were either sown directly and grown in the same containers, or they were first grown separately as seedlings and transplanted into the test containers a few days prior to treatment.
as §3, §4, §5, §6

Avena fatua (AVEFA) = assay: greenhouse post-emergence herbicidal test, AVEFA; details: post-emergence method, application rate 0.500 kg/ha, scale from 0 to 100
From the text: as §1, §7, §3, §4, §5, §6

[3] = tested on: Alopercurus myosuroides (ALOMY); assay: greenhouse post-emergence herbicidal test, ALOMY; details: post-emergence method, application rate 0.500 kg/ha, scale from 0 to 100
From the text: as §1, §7, §3, §4, §5, §6

[4] = tested on: Abutilon theophrasti (ABUTH); assay: greenhouse post-emergence herbicidal test, ABUTH; details: post-emergence method, application rate 0.250 kg/ha, scale from 0 to 100
From the text: as §1, §7, §3, §4, §5, §6

[5] = tested on: Digitaria sanguinalis (DIGSA); assay: greenhouse pre-emergence herbicidal test, DIGSA; details: pre-emergence method, application rate 0.250 kg/ha, scale from 0 to 100
From the text: as §1, §2, §3, §4, §5, §6

[6] = tested on: Lolium multiflorum (LOLMU); assay: greenhouse pre-emergence herbicidal test, LOLMU; details: pre-emergence method, application rate 0.250 kg/ha, scale from 0 to 100
From the text: as §1, §2, §3, §4, §5, §6

SMILES: COC(=O)CC(C)NC(=O)C(C)(C)C(=O)Nc1cc(Cl)cc(Cl)c1 (stereo not drawn) [Compound 1.1]
- herbicidal activity against ABUTH ([1]; application rate 0.500 kg/ha): good (A good herbicidal activity is given at values of 70 to <90)
- herbicidal activity against APESV [2]: very good (a very good herbicidal activity is given at values of 90 to 100)
- herbicidal activity against SETVI (Setaria viridis (SETVI)): very good (a very good herbicidal activity is given at values of 90 to 100)
- herbicidal activity against AVEFA (Avena fatua (AVEFA)): very good (a very good herbicidal activity is given at values of 90 to 100)
- herbicidal activity against ALOMY [3]: very good (a very good herbicidal activity is given at values of 90 to 100)

SMILES: COC(=O)C1C=CC(NC(=O)C(C)(C)C(=O)Nc2cccc(I)c2)C1 (stereo not drawn) [Compound 1.4]
- herbicidal activity against ABUTH [4]: good (A good herbicidal activity is given at values of 70 to <90)

SMILES: CC(C)(C(=O)Nc1cccc(OC(F)(F)F)c1)C(=O)N[C@H]1C=C[C@@H](C(=O)O)C1 (relative stereo) [Compound 1.79]
- herbicidal activity against DIGSA [5]: good (A good herbicidal activity is given at values of 70 to <90)

SMILES: CCc1cccc(NC(=O)C(C)(C)C(=O)NC(C)CCC(=O)OC)c1 (stereo not drawn) [Compound 1.19]
- herbicidal activity against ABUTH ([1]; application rate 0.250 kg/ha): good (A good herbicidal activity is given at values of 70 to <90)

SMILES: CC(C)(C(=O)Nc1cc(Cl)cc(Cl)c1)C(=O)N[C@H]1C=C[C@@H](C(=O)O)C1 (relative stereo) [Compound 1.80]
- herbicidal activity against LOLMU [6]: good (A good herbicidal activity is given at values of 70 to <90)
